Data set [1] in a line: RB5 brain levels by HPLC-MS/MS. The data set is classed as in vivo, mouse. The arrangement: Brain levels measured with mass spectrometry: unit not given here. Particulars: single 20 mg/kg i.p.; for Brain levels measured with mass spectrometry: mouse brain homogenate, individual mice, 20 mg/kg. How it is done: RB5 was quantified in the mouse brain using HPLC‐MS/MS. Brain samples were homogenized with 1:4 w/v of 50% acetonitrile 5% TFA in water with a homogenizer ultra‐turrax and then centrifuged at 13,000 rpm for 10 min at 4°C. The supernatant was collected and centrifuged at 15,871 g for 2 min at 4°C. The supernatant was then collected on ice, extracted using Sep‐Pak cartridges C18, lyophilized and kept at 4°C before HPLC‐MS/MS analysis. Immediately before the analysis, samples were suspended in 100 μl of 0.1% HCOOH in water/8% acetonitrile in auto‐sampler vials.
HPLC‐MS/MS analysis was performed using a system consisting of an Agilent 1200 series HPLC system coupled with an Agilent 6410 Triple Quadruple mass spectrometer. Mass Hunter Workstation v. B.01.03 software was used for data collection and processing (Agilent Technologies, Santa Clara, California, US). The quantification of brain levels of RB5 and Scramble peptides was carried out using an internal standard curve with peptide concentrations ranging from 0.1 to 4 ng/μl. RB5 and Scramble peptides, and the internal standard were separated at room temperature by injecting 10 μl of extracted sample onto a Jupiter C4 300 A analytical column, 2 × 150 mm, 5 μm particle size (Phenomenex, CA). Gradient elution was used for chromatographic separation, using 0.1% formic acid in water as solvent A and acetonitrile as solvent B at a flow rate of 200 μl/min. The elution started with 92% of eluent A and 8% of eluent B maintained for 1 min, followed by a 4 min linear gradient to 75% of eluent B, a 1 min linear gradient to 99% of eluent B, a 2 min isocratic elution, and a 0.5 min linear gradient to 8% of eluent B, which was maintained for 9.5 min to equilibrate the column. The samples were maintained at 4°C in the autosampler.
Peptides were then detected on an Agilent 6410 QQQ mass spectrometer using the following parameters: positive ion mode, 5 kV capillary voltage, cone voltage 500 V, gas flow rate 8 l/min at 350°C, nebulizer gas pressure 40 PSI at 350°C, well time 75 msec and Q1 and Q3 set to unit resolution.

The next data set concerns cleaved caspase-3. The data set is described as follows: Cleaved caspase-3 in striatum of zQ175 females after RB5. Type of data set: in vivo, mouse. Particulars: RB5 for 9 days. How it is done: Immunofluorescence was performed as described in Papale et al ([2016]). Briefly, 1 h after blocking in 5% normal goat serum, slices were incubated overnight at 4°C with the following primary antibodies: anti‐phospho (Ser10)‐acetylated (Lys14) histone H3 (1:1,000, Millipore), anti‐phospho‐S6 ribosomal protein (Ser235/236) (1:200, Cell Signaling Technology) anti‐phospho‐S6 ribosomal protein (Ser240/244) (1:200, Cell Signaling), cleaved caspase‐3 (1:200, Cell Signaling Technology), anti‐mutant Huntingtin (1:100, Developmental Studies Hybridoma Bank, University of Iowa, #MW8), and NeuN (1:1,000, Millipore). […]
In ex‐vivo and in‐vivo immunofluorescence experiments, the number of p‐S6 or p‐AcH3 immunoreactive neurons among NeuN‐positive neurons was counted in 2–3 consecutive striatal sections per mouse in four fields per section. Caspase 3‐positive cells were quantified among NeuN‐positive neurons in each slide and expressed as percentage (ratio between caspase‐3‐positive cells and total NeuN‐positive neurons) for each field acquired through the slide. The number of cells showing mutant Huntingtin inclusions were expressed as a percentage of mutant Huntingtin‐positive cells among DAPI‐positive cells. […]

Values joined by “and” are separate entries in the source; they are usually repeats but may differ in a detail not shown here. Equal values may be shown once.

As for “GRKKRRQRRRPPQGGGGGEPRRTEGVGPGVPGEVEMVKGQPFDV [RB5, six D-amino acids, acetylated N-terminus]”, in data set [1] (mice), the “Time RB5 is detectable in brain postinjection (mass spectrometry)” value is “up to 6 h”. Also, the “Brain levels measured with mass spectrometry” value is 92.2252 and 89.7022 and 75.321 and 38.8889 and 66.5288 in data set [1] (1 h); 119.5 and 39.8058 and 101.408 and 83.7545 and 96.934 in data set [1] (3 h); 57.0702 and 47.9263 and 56.5714 and 68.7679 and 72.8353 in data set [1] (6 h); 8.439 and 16.5056 and 9.465 and 6.558 in data set [1] (12 h). Further, the “Preapoptotic marker caspase-3 in striatum” value in the data set on cleaved caspase-3 is “very significant reduction”.

For “SCR: ineffective Scramble version of RB5 containing a TAT sequence (GRKKRRQRRRPPRVGPGVPEGVGVAVFGVKEPGQTGDVGPVGE) [reference compound]”, the “Brain levels measured with mass spectrometry” value in data set [1] (1 h) was 6.434 and 8.14.
